Data from US5298523A, “Method for treating transplant patients using mycalamide compounds” (priority 1992, dated 1994).
Converted amounts (≈) assume the structure as drawn. Where two headings read alike, the source gives them in different places.

Key:
[1] = Lymphocyte viability assay (LCV, MTT) on human PBL; assay type: cell-based; settings: for viability: human MLR, MTT
Procedure: Preparation of human peripheral blood leukocyte (PBL) suspensions. Human peripheral blood suspensions were prepared from Leukotrap blood filters as follows: Leukotrap filters containing processed leukocytes from random, unrelated blood donors were obtained from the Indian River Blood Bank (Vero Beach, Fla.). Buffy-coat blood cell suspensions were recovered by reverse-flow phosphate-buffered saline purging and centrifugation for 15 minutes at 475× g. Buffy coats were removed, and 5 ml of the suspension was layered onto 5 ml of Histopaque gradient material. The Histopaque gradients were centrifuged at 475× g for 30 minutes. Lymphocytes were removed from the Histopaque-medium interface, and washed twice with 10 ml of PBS (Dulbecco's phosphate-buffered saline without CaCl2 and MgCl2.6H2 O). The final cell pellet was resuspended in TCM, and the cell concentration adjusted to 2×10^6 cells/ml.
(§1) Determination of mycalamide A toxicity. The toxicity of mycalamide A on murine splenocytes and human PBL was determined using a colorimetric assay, based on the ability of viable cells to convert the colorless tetrazolium salt, 3-(4,5-dimethylthiazol-2yl)-2,5-diphenyl tetrazolium bromide (MTT) to a colored formazan product and trypan blue exclusion. For the colorimetric assay, a volume of 0.075 ml of an MTT solution (550 μg/ml of MTT in TCM) was added to test and control wells containing one of the populations of splenocytes or test wells and incubated for 5-6 hours following the initial incubation period. Microtiter plates were centrifuged at 100× g, supernatants carefully removed, and a volume of 0.20 ml of isopropyl alcohol was added to each well to dissolve the formazan crystals. The absorbance at 570 nm was determined for each well using an ELISA plate reader. […] As an additional parameter of toxicity, wells containing cultured lymphocytes with various dilutions of mycalamide A were examined with trypan blue, and the percentage of dye-excluding (viable) cells was determined.

[2] = test system: murine splenocytes; test: Mitogen-induced proliferation of murine splenocytes; assay type: cell-based; settings: for activity at 0.5 µg/mL / activity at 0.05 µg/mL / activity at 0.005 µg/mL / activity at 0.0005 µg/mL / activity at 50 pg/mL: Mus musculus, Splenocyte; for activity at 0.5 µg/mL: 5.0 × 10^-1 μg/ml; for activity at 0.05 µg/mL: 5.0 × 10^-2 μg/ml; for activity at 0.005 µg/mL: 5.0 × 10^-3 μg/ml; for activity at 0.0005 µg/mL: 5.0 × 10^-4 μg/ml; for activity at 50 pg/mL: 5.0 × 10^-5 μg/ml
Procedure: Preparation of splenocyte cell suspensions. […] The resulting supernatant was then transferred to another sterile centrifuge tube, and the cell concentration adjusted to 2×10^6 cells/ml dilution with TCM.
Mitogen studies. The effects of mycalamide A on the mitogen-induced proliferation of murine splenocytes was investigated. Splenocytes (2×10^5 /well) from C57BL/6J or BALB/c mice were incubated with 1.0 μg/ml of Con A, 10 μg/ml of phytohemagglutinin (PHA), lipopolysaccharide (LPS) or pokeweed mitogen (PWM) and various concentrations of mycalamide A at 37° C. in a 5% CO2, humidified atmosphere for 90 hours. A volume of […] of a 20.0 μCi/ml of ^3 H-thymidine was added to each well, and the plates incubated for an additional 6 hours. Plates were harvested, and ^3 H-thymidine incorporation determined by counting samples in a liquid scintillation counter.

[3] = test system: T cells; test: T cell viability by trypan blue exclusion; assay type: cell-based, murine
Procedure: as §1
(§2) Compounds were added as indicated. Cells were harveste
(§3) Each data point represents the mean value o

[4] = T cell viability by trypan blue exclusion; assay type: cell-based, murine; settings: t cells, read-out: percentage of trypan blue-positive cells
Procedure: as §1, §2, §3

[5] = Con A, read-out: Con A, % of control
[6] = LPS, read-out: LPS, % of control
[7] = PHA, read-out: PHA, % of control
[8] = PWM, read-out: PWM, % of control

Structure (SMILES): C=C1CC(OC)(C(O)C(=O)NC2OCOC3C2OC(CC(O)CO)C(C)(C)C3OC)OC(C)C1C (stereo not shown) [Mycalamide A, mycalamide A]
- viability ([1]; 5.0 × 10^-1 μg/ml): 42%
- viability ([1]; 5.0 × 10^-2 μg/ml): 52%
- viability ([1]; 5.0 × 10^-3 μg/ml): 46%
- viability ([1]; 5.0 × 10^-4 μg/ml): 128%
- viability ([1]; 5.0 × 10^-5 μg/ml): 111%
- viability ([1]; 5.0 × 10^-6 μg/ml): 114%
- viability ([1]; 5.0 × 10^-7 μg/ml): 116%
- CC50 ([1]; read-out: TC50 (LCV)): 0.083 µg/mL (≈ 0.165 µM)
- suppression of Con A, LPS, and PWM stimulation ([2]; 5×10^-5 μg/ml, Con A, LPS, PWM, in words): suppressed
- activity at 0.5 µg/mL [2, 5]: 0%
- activity at 0.05 µg/mL [2, 5]: 0%
- activity at 0.005 µg/mL [2, 5]: 0%
- activity at 0.0005 µg/mL [2, 5]: 0%
- activity at 50 pg/mL [2, 5]: 0%
- activity at 0.5 µg/mL [2, 6]: 0%
- activity at 0.05 µg/mL [2, 6]: 0%
- activity at 0.005 µg/mL [2, 6]: 0%
- activity at 0.0005 µg/mL [2, 6]: 0%
- activity at 50 pg/mL [2, 6]: 68%
- activity at 0.5 µg/mL [2, 7]: 0%
- activity at 0.05 µg/mL [2, 7]: 0%
- activity at 0.005 µg/mL [2, 7]: 0%
- activity at 0.0005 µg/mL [2, 7]: 38%
- activity at 50 pg/mL [2, 7]: 139%
- activity at 0.5 µg/mL [2, 8]: 0%
- activity at 0.05 µg/mL [2, 8]: 0%
- activity at 0.005 µg/mL [2, 8]: 0%
- activity at 0.0005 µg/mL [2, 8]: 0%
- activity at 50 pg/mL [2, 8]: 62%
- number of cells excluding trypan blue ([3]; 1 pM, Experiment 1, 20 hours): 1.39 × 10^6 cells
- number of cells excluding trypan blue ([3]; 1 pM, Experiment 2, 20 hours): 1.45 × 10^6 cells
- percentage of trypan blue-positive cells ([3]; 1 pM, Experiment 2, 20 hours): < 2%
- number of cells excluding trypan blue ([3]; 5 pM, Experiment 1, 20 hours): 1.41 × 10^6 cells
- number of cells excluding trypan blue ([3]; 5 pM, Experiment 2, 20 hours): 1.68 × 10^6 cells
- percentage of trypan blue-positive cells ([3]; 5 pM, Experiment 2, 20 hours): < 2%
- number of cells excluding trypan blue ([3]; 10 pM, Experiment 2, 20 hours): 1.49 × 10^6 cells
- effect on T cell viability ([3]; trypan blue exclusion, in words): did not significantly affect the cell viability
- cytotoxicity at 20 h, 1e-06 µM ([4]; 1 pM, Experiment 1, 20 hours): < 2%
- cytotoxicity at 20 h, 5e-06 µM ([4]; 5 pM, Experiment 1, 20 hours): < 2%
- cytotoxicity at 20 h, 1e-05 µM ([4]; 10 pM, Experiment 2, 20 hours): < 2%
